Columns and labels:
Assay type in all cases: cell-based
[1] = target: T1, zebrafish β1 homopentameric GABAA receptor (Danio rerio, UniProt F1QPW7); test: two-electrode voltage clamp, Xenopus oocytes, GABA-evoked current; conditions: agonist at 10 mM only; -50 mV, pH 7.5
T1 construct: gene gabrb1; homopentamer
T1 sequence (F1QPW7 29-484): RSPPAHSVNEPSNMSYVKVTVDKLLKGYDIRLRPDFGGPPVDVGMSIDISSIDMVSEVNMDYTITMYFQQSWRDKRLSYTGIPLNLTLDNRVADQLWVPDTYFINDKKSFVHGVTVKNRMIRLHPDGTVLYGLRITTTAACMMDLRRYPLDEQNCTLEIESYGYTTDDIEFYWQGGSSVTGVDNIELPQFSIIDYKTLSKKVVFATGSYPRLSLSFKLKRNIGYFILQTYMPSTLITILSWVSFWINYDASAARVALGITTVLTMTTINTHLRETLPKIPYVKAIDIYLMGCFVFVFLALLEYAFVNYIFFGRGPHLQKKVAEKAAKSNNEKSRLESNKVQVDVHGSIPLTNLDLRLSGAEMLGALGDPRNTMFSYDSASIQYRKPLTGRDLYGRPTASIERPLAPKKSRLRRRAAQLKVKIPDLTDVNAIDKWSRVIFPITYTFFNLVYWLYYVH

[2] = target: T2, zebrafish β4 homopentameric GABAA receptor (Danio rerio, UniProt A0A2R8QJR5); test: as above; conditions: agonist at 10 mM only; -50 mV, pH 7.5
T2 construct: gene gabrb4; homopentamer
T2 sequence (A0A2R8QJR5 26-482): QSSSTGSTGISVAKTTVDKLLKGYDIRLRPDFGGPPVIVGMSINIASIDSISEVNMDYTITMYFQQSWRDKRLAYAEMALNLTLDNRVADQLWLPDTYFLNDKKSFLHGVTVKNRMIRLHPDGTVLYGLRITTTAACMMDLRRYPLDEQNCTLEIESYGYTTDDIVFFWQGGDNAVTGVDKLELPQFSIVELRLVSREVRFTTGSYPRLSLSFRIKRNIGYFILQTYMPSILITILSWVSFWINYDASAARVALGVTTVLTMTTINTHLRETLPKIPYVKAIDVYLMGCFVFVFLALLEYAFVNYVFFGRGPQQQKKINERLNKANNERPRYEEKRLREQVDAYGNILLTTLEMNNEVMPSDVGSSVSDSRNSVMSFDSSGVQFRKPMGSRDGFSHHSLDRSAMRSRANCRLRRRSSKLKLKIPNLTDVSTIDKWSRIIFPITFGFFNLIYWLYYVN

[3] = target: T3, zebrafish β3 homopentameric GABAA receptor (Danio rerio, UniProt A0A0R4ILP2); test: as above; conditions: agonist at 10 mM only; -50 mV, pH 7.5
T3 construct: gene gabrb3; homopentamer
T3 sequence (A0A0R4ILP2 26-498): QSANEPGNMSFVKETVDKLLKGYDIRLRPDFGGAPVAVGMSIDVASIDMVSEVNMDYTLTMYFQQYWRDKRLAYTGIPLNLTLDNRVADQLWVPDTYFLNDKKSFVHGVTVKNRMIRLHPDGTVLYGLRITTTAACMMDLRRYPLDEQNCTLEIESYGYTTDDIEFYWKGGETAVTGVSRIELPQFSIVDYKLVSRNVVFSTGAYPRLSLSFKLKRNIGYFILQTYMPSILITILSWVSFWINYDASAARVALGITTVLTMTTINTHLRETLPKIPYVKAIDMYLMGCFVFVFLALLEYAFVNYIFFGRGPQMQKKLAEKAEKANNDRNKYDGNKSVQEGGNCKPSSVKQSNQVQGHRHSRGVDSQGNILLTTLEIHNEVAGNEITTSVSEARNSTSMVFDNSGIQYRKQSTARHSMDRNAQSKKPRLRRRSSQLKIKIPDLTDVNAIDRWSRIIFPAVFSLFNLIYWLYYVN

[4] = target: T3, zebrafish β3 homopentameric GABAA receptor; test: two-electrode voltage clamp, Xenopus oocytes, etomidate-evoked current

| SMILES | two-electrode voltage clamp, Xenopus oocytes, GABA-evoked current [1] | two-electrode voltage clamp, Xenopus oocytes, GABA-evoked current [2] | two-electrode voltage clamp, Xenopus oocytes, GABA-evoked current [3] | EC50 [4] [µM] |
| --- | --- | --- | --- | --- |
| NCCCC(=O)O [GABA] | either single β subunit yielded small currents | either single β subunit yielded small currents | either single β subunit yielded small currents |  |
| CCOC(=O)c1cncn1[C@H](C)c1ccccc1 [etomidate] |  |  |  | 30.3 ± 5.7 |

From paper PMC7973766, “Characterization of zebrafish GABAA receptor subunits” (Scientific Reports, 2021)
